Data from patent US20260297542A1, “HERBICIDE RESISTANT PLANTS” (SYNGENTA CROP PROTECTION AG, priority 2023, published 2026).
Numbering of substitutions follows the chain as printed.

How the values were obtained:
Assay in all cases: E. coli hemG growth inhibition by herbicide, AtPPO1 variant
Assay type in all cases: cell-based
Conditions in all cases: read-out: percentage growth inhibition
AtPPO1 A176L = molecular target: T1, AtPPO1 A176L (Arabidopsis thaliana, UniProt P55826, A176L)
T1 construct: expressed in transfected cells; host or cells: E. coli BL21(DE3) hemG (hemG replaced by CmR), pET24a plasmid
T1 sequence (P55826 35-537 A176L): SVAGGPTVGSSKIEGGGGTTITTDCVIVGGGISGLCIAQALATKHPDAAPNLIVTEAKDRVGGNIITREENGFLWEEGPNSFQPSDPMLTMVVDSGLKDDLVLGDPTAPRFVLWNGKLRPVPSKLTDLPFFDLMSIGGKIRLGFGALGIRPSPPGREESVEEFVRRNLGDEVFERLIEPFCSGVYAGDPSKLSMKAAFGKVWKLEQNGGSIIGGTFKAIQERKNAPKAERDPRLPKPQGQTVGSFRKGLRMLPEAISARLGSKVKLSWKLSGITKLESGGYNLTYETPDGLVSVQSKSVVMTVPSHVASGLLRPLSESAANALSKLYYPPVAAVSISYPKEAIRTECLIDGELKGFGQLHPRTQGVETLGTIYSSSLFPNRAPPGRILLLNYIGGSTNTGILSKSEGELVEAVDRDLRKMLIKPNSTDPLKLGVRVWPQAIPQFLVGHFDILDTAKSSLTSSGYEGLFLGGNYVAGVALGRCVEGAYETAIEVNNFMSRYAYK
In short: (§1)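 Read-out is OD600 at 24 h post inoculation, converted to percent growth inhibition relative to DMSO. The hemG-deleted BL21(DE3) host relied on the plasmid-borne AtPPO1 variant, induced with 0.1 mM IPTG, with 6.25 ppm herbicide 0 or E or 0.78 ppm herbicide B present at 37° C.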

AtPPO1 K281C = molecular target: T2, AtPPO1 K281C (Arabidopsis thaliana, UniProt P55826, K281C)
T2 construct: expressed in transfected cells; host or cells: E. coli BL21(DE3) hemG (hemG replaced by CmR), pET24a plasmid
T2 sequence (P55826 35-537 K281C): T1 sequence (P55826 35-537 A176L) with L142A, K247C
In short: as §1

AtPPO1 P271C = molecular target: T3, AtPPO1 P271C (Arabidopsis thaliana, UniProt P55826, P271C)
T3 construct: expressed in transfected cells; host or cells: E. coli BL21(DE3) hemG (hemG replaced by CmR), pET24a plasmid
T3 sequence (P55826 35-537 P271C): T1 sequence (P55826 35-537 A176L) with L142A, P237C
In short: as §1

AtPPO1 Y361T = molecular target: T4, AtPPO1 Y361T (Arabidopsis thaliana, UniProt P55826, Y361T)
T4 construct: expressed in transfected cells; host or cells: E. coli BL21(DE3) hemG (pET24a, T7 promoter)
T4 sequence (P55826 35-537 Y361T): T1 sequence (P55826 35-537 A176L) with L142A, Y327T
In short: as §1

| SMILES | inhibition at 6.25 ppm (AtPPO1 A176L) [%] | inhibition at 6.25 ppm (AtPPO1 K281C) [%] | inhibition at 6.25 ppm (AtPPO1 P271C) [%] | inhibition at 6.25 ppm (AtPPO1 Y361T) [%] | inhibition at 0.78 ppm (AtPPO1 A176L) [%] | inhibition at 0.78 ppm (AtPPO1 K281C) [%] | inhibition at 0.78 ppm (AtPPO1 P271C) [%] | inhibition at 0.78 ppm (AtPPO1 Y361T) [%] |
| --- | --- | --- | --- | --- | --- | --- | --- | --- |
| CC(C)N(C)S(=O)(=O)NC(=O)c1cc(-n2c(=O)cc(C(F)(F)F)n(C)c2=O)c(F)cc1Cl [Herbicide E, saflufenacil] | 61 | 54 | 66 | 37 | – | – | – | – |
| C#CCN1C(=O)C(F)(F)Oc2cc(F)c(-n3c(=O)n(C)c(=S)n(C)c3=O)cc21 [Herbicide B, trifludimoxazin] | – | – | – | – | 35 | 35 | 24 | 37 |
| CCOC(=O)[C@]1(C)CC(c2cc(-n3c(=O)n(C)c(=S)n(C)c3=O)c(F)cc2Cl)=NO1 [Herbicide D, ethyl (5S)-3-[2-chloro-5-(3,5-dimethyl-2,6-dioxo-4-thioxo-1,3,5-triazinan-1-yl)-4-fluoro-phenyl]-5-methyl-4H-isoxazole-5-carboxylate] | 42 | 33 | 24 | 44 | – | – | – | – |
